Laboratory results: patent publication US7091192B1, “Linear cyclodextrin copolymers” (California Institute of Technology, priority 1998, dated 2006)

Legend:
KB cell line = experiment: MTT toxicity assay, small molecule delivery to cultured cells (KB)
Procedure: (§1) Media containing doxorubicin and doxorubicin/CD-polymer complexes at various concentrations were applied to cultured cell lines. After 5 hours, the media was removed and replaced with fresh media. […] ([…], “Culture of Animal Cells”, 3rd ed., Wiley-Liss: New York (1994)). […] For receptor-mediated delivery, a ligand such a folate is covalently attached to the CD-polymer used for doxorubicin complexation.

[1] = tested on: KB-VI (a multidrug resistant derivative of KB) cell line; experiment: MTT toxicity assay, small molecule delivery to cultured cells (KB-VI)
Procedure: as §1

[2] = pH 7.1; Husain et al., Applied Spectroscopy 1992; cited from earlier work
[3] = Homo sapiens, KB, 5 h, read-out: IC50 (μM of doxorubicin)

## COc1cccc2c1C(=O)c1c(O)c3c(c(O)c1C2=O)C[C@@](O)(C(=O)CO)C[C@@H]3O[C@H]1C[C@H](N)[C@H](O)[C@H](C)O1 [doxorubicin]
KB cell line; [3]
  IC50: ~0.1 µM
[1]; [3]
  IC50: ~10 µM

## OC[C@H]1O[C@@H]2O[C@H]3[C@H](O)[C@@H](O)[C@@H](O[C@H]4[C@H](O)[C@@H](O)[C@@H](O[C@H]5[C@H](O)[C@@H](O)[C@@H](O[C@H]6[C@H](O)[C@@H](O)[C@@H](O[C@H]7[C@H](O)[C@@H](O)[C@@H](O[C@H]8[C@H](O)[C@@H](O)[C@@H](O[C@H]1[C@H](O)[C@H]2O)O[C@@H]8CO)O[C@@H]7CO)O[C@@H]6CO)O[C@@H]5CO)O[C@@H]4CO)O[C@@H]3CO [β-CD, β-cyclodextrin]
[2]
  Association constant between β-CD and doxorubicin: 210 M⁻¹

## β-cyclodextrin(cystamine)-DTBP Copolymer [Copolymer 15]
KB cell line
  Toxicity to KB cells in the absence of doxorubicin: not toxic
[1]
  Toxicity to KB-VI cells in the absence of doxorubicin: not toxic
